In ChEMBL document CHEMBL1201862, “PubChem BioAssay data set” (2004):
Each block holds one compound with its values, some of them ahead of it. Activity calls are given as the source filed them.

Columns and labels:
[1] = MIN6 cell viability loss – mouse insulinoma, cytotoxicity control, dose response (AID 2122); assay type: functional;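 further: confirmatory high-throughput counterscreen run to flag cytotoxic compounds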
[2] = decrease of insulin promoter-GFP reporter – imaging, high-content screening, mouse beta cells (AID 1628); assay type: functional; conditions: MIN6
[3] = system: Escherichia coli; experiment: microbe, parasite or virus in culture
[4] = system: Escherichia coli; experiment: microbe, parasite or virus in culture; remark: listed apart in the source
[5] = biological target: Prothrombin (Bos taurus, UniProt P00735); experiment: thrombin protease inhibitors – biochemical, fluorescence polarization, uHTS hits, dose response (AID 602369); assay type: functional
[6] = biological target: 72 kDa type IV collagenase (Homo sapiens, UniProt P08253); experiment: Dose Response validation of uHTS RPN11 inhibitor hits using a MMP-2 Fluorescence assay.; assay type: functional
[7] = biological target: 26S proteasome non-ATPase regulatory subunit 14 (Homo sapiens, UniProt O00487); experiment: inhibition of proteasome subunit RPN11 – biochemical, fluorescence polarization, uHTS hits, confirmation (AID 602368); assay type: functional
[8] = biological target: Intestinal-type alkaline phosphatase (Homo sapiens, UniProt P09923); experiment: inhibition of human intestinal alkaline phosphatase – biochemical, dose response (AID 488876); assay type: functional
[9] = biological target: T1, Alkaline phosphatase, tissue-nonspecific isozyme (Homo sapiens, UniProt P05186); experiment: TNAP enzyme inhibition by screening hits, dose response, selectivity assay for mouse IAP inhibitor project, biochemical, human TNAP, uHTS hits (AID 488906); assay type: functional
T1 sequence (P05186 whole entry): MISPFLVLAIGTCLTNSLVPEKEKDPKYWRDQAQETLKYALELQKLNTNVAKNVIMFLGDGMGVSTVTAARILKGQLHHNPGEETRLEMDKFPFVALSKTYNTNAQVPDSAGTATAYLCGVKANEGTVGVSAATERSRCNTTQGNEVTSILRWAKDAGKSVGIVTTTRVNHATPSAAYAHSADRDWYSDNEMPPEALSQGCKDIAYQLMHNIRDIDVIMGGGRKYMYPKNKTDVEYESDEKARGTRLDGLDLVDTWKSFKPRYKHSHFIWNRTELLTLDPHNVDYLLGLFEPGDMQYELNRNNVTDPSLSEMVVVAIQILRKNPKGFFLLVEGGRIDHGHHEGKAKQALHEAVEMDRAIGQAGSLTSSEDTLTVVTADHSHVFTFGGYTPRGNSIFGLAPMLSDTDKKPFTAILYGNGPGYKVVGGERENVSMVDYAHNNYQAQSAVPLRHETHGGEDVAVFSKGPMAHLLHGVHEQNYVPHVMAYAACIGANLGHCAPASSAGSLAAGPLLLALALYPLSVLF

[10] = biological target: Intestinal-type alkaline phosphatase (Mus musculus, UniProt P24822); experiment: PubChem AID 488785; assay type: functional
[11] = biological target: Peroxisome proliferator-activated receptor gamma/Nuclear receptor coactivator 1 (Homo sapiens, UniProt P37231); experiment: TR-FRET dose response biochemical High Throughput Screening assay for agonists of the steroid receptor coactivator 1 (SRC-1) recruitment by the peroxisome proliferator-activated receptor gamma (PPAR gamma): non-selective agonists. [Related pubchem assays (depositor defined):AID1300, AID1808, AID504735, AID631]; assay type: protein assay
[12] = biological target: T2, RNA-binding protein pos-1 (Caenorhabditis elegans, UniProt G5EF15); experiment: disruptors of C. elegans POS-1 RNA interaction – biochemical, fluorescence polarization, dose response (AID 1964);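 further: purified POS-1 fused to maltose binding protein made in E. coli; potency of compounds blocking POS-1 binding to fluorescent RNA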
T2 sequence (G5EF15 whole entry): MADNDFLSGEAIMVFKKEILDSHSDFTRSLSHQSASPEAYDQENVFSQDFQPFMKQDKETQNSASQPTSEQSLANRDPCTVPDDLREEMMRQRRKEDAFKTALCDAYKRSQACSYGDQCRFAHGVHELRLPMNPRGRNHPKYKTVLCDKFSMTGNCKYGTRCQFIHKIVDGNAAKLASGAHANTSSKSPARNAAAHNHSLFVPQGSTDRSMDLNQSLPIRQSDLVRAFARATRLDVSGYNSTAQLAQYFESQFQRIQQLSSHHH

[13] = biological target: Peroxisome proliferator-activated receptor gamma/Nuclear receptor coactivator 2 (Homo sapiens, UniProt P37231); experiment: (§1) TR-FRET dose response biochemical High Throughput Screening assay for agonists of the steroid receptor coactivator 2 (SRC-2) recruitment by the peroxisome proliferator-activated receptor gamma (PPAR gamma): non-selective agonists. [Related pubchem assays: 1297, 1032 ]; assay type: functional
[14] = biological target: T3, Zinc finger protein mex-5 (Caenorhabditis elegans, UniProt Q9XUB2); experiment: potency of MEX-5 RNA-binding blockers – biochemical, C. elegans, fluorescence polarization, dose response (AID 1960)
T3 sequence (Q9XUB2 whole entry): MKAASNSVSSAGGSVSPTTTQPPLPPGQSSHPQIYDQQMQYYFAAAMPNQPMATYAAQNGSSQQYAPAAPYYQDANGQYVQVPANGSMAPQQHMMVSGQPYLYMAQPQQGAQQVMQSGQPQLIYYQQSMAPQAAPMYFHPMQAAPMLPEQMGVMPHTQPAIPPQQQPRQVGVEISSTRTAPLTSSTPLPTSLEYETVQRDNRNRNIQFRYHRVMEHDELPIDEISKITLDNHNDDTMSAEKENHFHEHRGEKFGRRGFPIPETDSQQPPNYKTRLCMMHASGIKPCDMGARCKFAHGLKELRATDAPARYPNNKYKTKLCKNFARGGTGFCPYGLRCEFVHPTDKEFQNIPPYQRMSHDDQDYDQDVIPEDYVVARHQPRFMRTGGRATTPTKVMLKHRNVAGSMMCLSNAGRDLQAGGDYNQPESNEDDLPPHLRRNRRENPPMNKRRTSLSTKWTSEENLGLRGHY

[15] = biological target: Peroxisome proliferator-activated receptor gamma/Nuclear receptor coactivator 3 (Homo sapiens, UniProt P37231); experiment: as §1, with “3 (SRC-3)” for “2 (SRC-2)”, “1301 (Confirmation screen.), 1048 (Primary screen.)]” for “1297, 1032 ]”; assay type: functional
Peroxisome proliferator-activated receptor gamma/Nuclear receptor coactivator 3, sequence (P37231 whole entry): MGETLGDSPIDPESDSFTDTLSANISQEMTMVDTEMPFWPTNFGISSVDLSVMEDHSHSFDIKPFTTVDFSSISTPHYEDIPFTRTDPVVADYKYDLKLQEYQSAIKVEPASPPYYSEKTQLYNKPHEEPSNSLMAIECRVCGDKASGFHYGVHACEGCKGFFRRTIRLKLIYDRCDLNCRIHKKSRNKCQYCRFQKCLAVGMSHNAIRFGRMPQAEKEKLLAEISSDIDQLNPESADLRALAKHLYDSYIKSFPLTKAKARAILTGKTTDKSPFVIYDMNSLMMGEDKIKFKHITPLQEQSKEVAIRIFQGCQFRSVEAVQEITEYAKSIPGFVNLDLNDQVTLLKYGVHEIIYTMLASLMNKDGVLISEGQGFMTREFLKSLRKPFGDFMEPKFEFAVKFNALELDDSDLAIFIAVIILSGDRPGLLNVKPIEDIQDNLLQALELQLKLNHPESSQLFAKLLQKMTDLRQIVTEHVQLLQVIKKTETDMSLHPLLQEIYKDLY
Peroxisome proliferator-activated receptor gamma/Nuclear receptor coactivator 3, sequence (Q9Y6Q9 whole entry, further chain): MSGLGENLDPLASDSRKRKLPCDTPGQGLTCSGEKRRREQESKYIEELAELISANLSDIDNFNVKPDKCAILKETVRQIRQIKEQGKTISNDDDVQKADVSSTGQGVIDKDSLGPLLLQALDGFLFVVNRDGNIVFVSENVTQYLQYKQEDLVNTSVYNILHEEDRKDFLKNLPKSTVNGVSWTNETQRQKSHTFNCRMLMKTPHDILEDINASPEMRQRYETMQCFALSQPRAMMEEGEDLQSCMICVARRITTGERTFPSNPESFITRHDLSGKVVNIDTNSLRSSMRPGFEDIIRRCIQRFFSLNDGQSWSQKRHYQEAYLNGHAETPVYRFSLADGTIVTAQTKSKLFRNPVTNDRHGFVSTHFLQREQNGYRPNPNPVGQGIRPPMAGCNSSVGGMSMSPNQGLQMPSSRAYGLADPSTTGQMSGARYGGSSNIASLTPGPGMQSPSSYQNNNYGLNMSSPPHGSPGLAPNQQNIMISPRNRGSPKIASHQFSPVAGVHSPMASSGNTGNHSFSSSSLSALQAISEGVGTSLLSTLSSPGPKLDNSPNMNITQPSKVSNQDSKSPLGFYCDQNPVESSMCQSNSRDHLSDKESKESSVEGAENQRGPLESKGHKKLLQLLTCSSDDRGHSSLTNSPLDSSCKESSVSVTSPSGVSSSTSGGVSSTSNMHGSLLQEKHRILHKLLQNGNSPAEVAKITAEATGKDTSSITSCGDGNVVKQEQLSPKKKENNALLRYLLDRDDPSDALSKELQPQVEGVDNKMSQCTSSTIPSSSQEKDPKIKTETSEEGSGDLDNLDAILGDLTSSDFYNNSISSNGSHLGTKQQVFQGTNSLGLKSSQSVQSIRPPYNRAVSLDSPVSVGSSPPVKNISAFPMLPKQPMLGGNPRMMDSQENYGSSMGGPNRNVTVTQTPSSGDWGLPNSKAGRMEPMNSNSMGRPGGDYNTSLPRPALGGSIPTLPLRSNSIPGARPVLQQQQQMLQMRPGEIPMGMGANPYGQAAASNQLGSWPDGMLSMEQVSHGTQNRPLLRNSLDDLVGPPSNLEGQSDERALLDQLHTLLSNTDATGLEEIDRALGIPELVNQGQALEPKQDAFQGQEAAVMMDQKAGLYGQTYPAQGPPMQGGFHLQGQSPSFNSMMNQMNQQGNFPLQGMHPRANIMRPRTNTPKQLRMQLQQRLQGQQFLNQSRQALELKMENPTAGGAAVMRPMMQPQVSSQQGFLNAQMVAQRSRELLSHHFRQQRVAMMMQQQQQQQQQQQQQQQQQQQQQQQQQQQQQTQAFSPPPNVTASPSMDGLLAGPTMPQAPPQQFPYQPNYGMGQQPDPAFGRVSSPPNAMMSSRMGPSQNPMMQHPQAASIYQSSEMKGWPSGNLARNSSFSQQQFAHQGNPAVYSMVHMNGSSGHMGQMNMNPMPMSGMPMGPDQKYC

72 kDa type IV collagenase, sequence (P08253 whole entry): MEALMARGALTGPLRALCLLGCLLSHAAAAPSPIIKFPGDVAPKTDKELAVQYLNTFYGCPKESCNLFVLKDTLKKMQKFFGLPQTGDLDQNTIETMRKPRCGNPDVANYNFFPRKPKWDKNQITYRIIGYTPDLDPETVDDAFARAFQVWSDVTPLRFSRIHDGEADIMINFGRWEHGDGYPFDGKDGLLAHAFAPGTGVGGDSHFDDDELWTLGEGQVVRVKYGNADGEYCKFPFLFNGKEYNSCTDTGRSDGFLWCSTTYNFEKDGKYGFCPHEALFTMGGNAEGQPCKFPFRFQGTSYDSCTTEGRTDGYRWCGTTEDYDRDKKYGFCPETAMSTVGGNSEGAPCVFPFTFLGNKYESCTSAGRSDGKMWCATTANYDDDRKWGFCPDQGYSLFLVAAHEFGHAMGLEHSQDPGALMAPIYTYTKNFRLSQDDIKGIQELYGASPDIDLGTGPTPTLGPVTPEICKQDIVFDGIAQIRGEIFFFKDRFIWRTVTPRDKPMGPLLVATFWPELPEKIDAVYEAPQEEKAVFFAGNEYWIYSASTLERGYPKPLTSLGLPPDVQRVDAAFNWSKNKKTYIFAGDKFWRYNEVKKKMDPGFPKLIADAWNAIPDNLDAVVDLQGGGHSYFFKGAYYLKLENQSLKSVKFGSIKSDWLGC
26S proteasome non-ATPase regulatory subunit 14, sequence (O00487 whole entry): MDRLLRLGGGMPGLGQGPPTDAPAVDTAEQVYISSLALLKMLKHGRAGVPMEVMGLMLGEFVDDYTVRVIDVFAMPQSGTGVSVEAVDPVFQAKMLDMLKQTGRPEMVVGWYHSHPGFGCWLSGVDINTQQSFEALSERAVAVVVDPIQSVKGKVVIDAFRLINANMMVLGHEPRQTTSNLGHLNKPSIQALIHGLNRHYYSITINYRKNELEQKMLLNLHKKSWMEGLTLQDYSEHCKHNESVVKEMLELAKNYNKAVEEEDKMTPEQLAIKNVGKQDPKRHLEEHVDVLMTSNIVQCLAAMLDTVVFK
Intestinal-type alkaline phosphatase (Homo sapiens, UniProt P09923), sequence (P09923 whole entry): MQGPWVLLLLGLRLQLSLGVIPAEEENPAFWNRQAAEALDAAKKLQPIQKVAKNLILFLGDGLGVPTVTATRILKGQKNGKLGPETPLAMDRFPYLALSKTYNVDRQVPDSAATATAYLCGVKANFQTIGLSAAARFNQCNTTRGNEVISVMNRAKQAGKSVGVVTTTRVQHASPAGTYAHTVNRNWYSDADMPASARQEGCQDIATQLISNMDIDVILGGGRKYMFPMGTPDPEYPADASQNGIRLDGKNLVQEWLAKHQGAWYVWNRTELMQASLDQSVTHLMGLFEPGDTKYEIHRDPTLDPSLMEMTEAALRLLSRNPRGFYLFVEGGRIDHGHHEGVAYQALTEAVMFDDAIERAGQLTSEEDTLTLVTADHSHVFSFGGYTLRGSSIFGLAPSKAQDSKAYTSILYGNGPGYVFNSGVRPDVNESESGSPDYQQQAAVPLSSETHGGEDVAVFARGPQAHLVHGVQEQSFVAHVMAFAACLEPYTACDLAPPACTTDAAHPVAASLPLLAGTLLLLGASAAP
Intestinal-type alkaline phosphatase (Mus musculus, UniProt P24822), sequence (P24822 whole entry): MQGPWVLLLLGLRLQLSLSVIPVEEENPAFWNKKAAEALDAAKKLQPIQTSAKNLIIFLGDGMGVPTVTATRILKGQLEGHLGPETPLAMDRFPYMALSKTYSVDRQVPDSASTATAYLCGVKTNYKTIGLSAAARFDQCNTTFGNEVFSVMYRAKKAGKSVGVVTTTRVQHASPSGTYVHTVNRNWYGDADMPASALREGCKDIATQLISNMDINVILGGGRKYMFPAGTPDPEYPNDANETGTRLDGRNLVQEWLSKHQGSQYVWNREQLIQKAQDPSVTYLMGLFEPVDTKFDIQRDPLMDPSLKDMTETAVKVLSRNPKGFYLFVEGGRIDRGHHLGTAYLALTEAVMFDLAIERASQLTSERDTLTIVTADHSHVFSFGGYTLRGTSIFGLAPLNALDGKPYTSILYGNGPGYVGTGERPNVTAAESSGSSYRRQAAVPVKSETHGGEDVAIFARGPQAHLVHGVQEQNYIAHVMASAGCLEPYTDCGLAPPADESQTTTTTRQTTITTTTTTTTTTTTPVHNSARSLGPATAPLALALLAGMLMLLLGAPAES

SMILES: NS(=O)(=O)c1ccc(CCNc2ncnc3sccc23)cc1
IC50 [1]: 1.06 µM (active)
IC50 [2]: 2.01 µM (active)

SMILES: c1ccc(Nc2cc(-c3ccccc3)nc3ncnn23)cc1
AC50 [3]: 18.4 µM (active)
AC50 [4]: 72 µM (active)

SMILES: O=C(CS(=O)(=O)c1ccc(Cl)c(Cl)c1)Nc1ccccc1Cl
AC50 [3]: 47.2 µM (active)
AC50 [4]: 300 µM (active)

More lines, now with the values ahead:

IC50 [5]: 42.7 µM (active)
IC50 [6]: > 100 µM (inactive)
IC50 [7]: 23.3 µM (active)
SMILES: CN1C(=O)/C(=C\C=C2/CCCN2C)N(C)C1=S

IC50 [8]: > 100 µM (inactive)
IC50 [9]: 22.2 µM (active)
IC50 [10]: 6.07 µM (active)
SMILES: COc1cc(C(=O)NN2C(=O)/C(=C3\C(=O)Nc4ccccc43)SC2=S)ccc1O

EC50 [11]: > 79.4 µM (inactive)
EC50 [12]: > 300 µM (not active)
EC50 [13]: 19.6 µM (not active)
EC50 [14]: > 300 µM (not active)
EC50 [15]: > 79.4 µM (not active)
SMILES: COc1cccc(C2C(C(=O)c3cc4cccc(OC)c4o3)=C(O)C(=O)N2c2cc(C)on2)c1OC (stereo not given)

IC50 [5]: > 100 µM (inactive)
IC50 [6]: 9.51 µM (active)
IC50 [7]: 51.1 µM (active)
SMILES: Cc1cc2nc(CS)[nH]c2cc1C
